One block for each molecule: values may come before it.
Molecular target: T1, CXCR4 (Homo sapiens, UniProt P61073)
T1 construct: Human T lymphoblast cells (CCRF-CEM) expressing endogenous CXCR4 receptors; endogenous in cells; host or cells: CCRF-CEM (human T lymphoblast cells)
Assay: CXCR4-CEM calcium flux assay, antagonist mode (inhibition of SDF-1α-induced calcium flux)
Format: cell-based
Conditions: CCRF-CEM cells expressing endogenous CXCR4, stimulated with 4 nM SDF-1α, read-out: CXCR4 Ca^2+ Flux IC50
Method: CXCR4-CEM Calcium Flux Assays
Exemplary compounds of the invention were tested for their ability to induce or inhibit calcium flux in CCRF-CEM cells, a human cell line that endogenously expresses CXCR4. Activation of CXCR4 stimulates G protein signaling which, in CCRF-CEM cells, causes a series of downstream events that leads to the release of intracellular calcium stores, or calcium flux. Calcium ion concentrations can be easily measured using a wide variety of […] calcium indicators and, as a result, calcium flux assays are commonly employed methods for measuring G protein-coupled receptor (GPCR) activity. Because the therapeutic potential of CXCR4 antagonists as anti-cancer agents likely relies on their ability to inhibit CXCR4-mediated G protein signaling, this assay was utilized as a first-pass measure of inhibitor potency.
The cells were then equilibrated to room temperature for 30 minutes before assay. […] For “antagonist mode” assessment, the cells are subsequently incubated for 25 minutes at room temperature. SDF-1α (R&D System Cat #350-NS/CF) was then added at a final concentration of 4 nM to stimulate the cells. Inhibition of SDF-1α-induced calcium flux was monitored by FDSS6000 for 90 seconds.
After correcting for background, EC50 values were determined. […] Inhibition data for the test compound over a range of concentrations was plotted as percentage inhibition of the test compound as compared to an internal control compound.

T1 sequence (P61073 whole entry): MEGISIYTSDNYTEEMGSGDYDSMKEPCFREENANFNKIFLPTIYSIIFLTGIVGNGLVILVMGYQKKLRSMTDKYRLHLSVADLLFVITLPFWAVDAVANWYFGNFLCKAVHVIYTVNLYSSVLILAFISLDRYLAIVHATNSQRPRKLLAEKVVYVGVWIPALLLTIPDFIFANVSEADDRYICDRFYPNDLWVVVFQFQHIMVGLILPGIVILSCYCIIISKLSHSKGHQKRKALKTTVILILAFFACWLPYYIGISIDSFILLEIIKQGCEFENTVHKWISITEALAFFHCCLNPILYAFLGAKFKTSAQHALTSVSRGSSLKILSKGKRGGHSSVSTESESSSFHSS

IC50: 58.3 nM
SMILES: C(=C\CN(C[C@H]1Cc2ccccc2CN1)[C@H]1CCCc2cccnc21)/CNCc1ccccn1 [EMU223, (E)-N1-(pyridin-2-ylmethyl)-N4-(((R)-1,2,3,4-tetrahydroisoquinolin-3-yl)methyl)-N4-((S)-5,6,7,8-tetrahydroquinolin-8-yl)but-2-ene-1,4-diamine]

IC50: 9.56 nM
SMILES: CN1C[C@@H]2CN(c3cccc4c3C[C@H](CN(C)C3CCCc5cccnc53)NC4)C[C@@H]2C1 (some centres unmarked) [EMU227]

IC50: 35.9 nM
SMILES: CN(C)C1CCN(c2cccc3c2C[C@H](CN(C)[C@H]2CCCc4cccnc42)NC3)CC1 [EMU228]

IC50: 32 nM
SMILES: CN1Cc2cccc(N3CCNCC3)c2C[C@@H]1CN(C)[C@H]1CCCc2cccnc21 [EMU234]

IC50: 10.4 nM
SMILES: CN(C)[C@@H]1CCN(c2cccc3c2C[C@H](CN(C)[C@H]2CCCc4cccnc42)NC3)C1 [EMU237]

Continued, molecule first:

SMILES: CN(C[C@H]1Cc2c(cccc2N2CCN(c3cccc(C(F)(F)F)c3)CC2)CN1)[C@H]1CCCc2cccnc21 [EMU226]
IC50: > 16700 nM

SMILES: CN1CCN(Nc2cccc3c2C[C@H](CN(C)[C@H]2CCCc4cccnc42)NC3)CC1 [EMU229]
IC50: 47.4 nM

SMILES: Cc1cnc2c(c1)CCC[C@@H]2N(C)C[C@H]1Cc2c(cccc2N2CCNCC2)CN1 [EMU230, (S)—N,3-dimethyl-N—(((R)-5-(piperazin-1-yl)-1,2,3,4-tetrahydroisoquinolin-3-yl)methyl)-5,6,7,8-tetrahydroquinolin-8-amine]
IC50: 16.1 nM

SMILES: CN1CCN(c2cccc3c2C[C@H](CN2CCC[C@H]4CCc5cccnc5[C@H]42)NC3)CC1 [EMU232, (4aR,10bS)-1-(((R)-5-(4-methylpiperazin-1-yl)-1,2,3,4-tetrahydroisoquinolin-3-yl)methyl)-1,2,3,4,4a,5,6,10b-octahydro-1,10-phenanthroline]
IC50: 25.2 nM

SMILES: CN(C[C@H]1Cc2c(cccc2N2C[C@H]3CCN(C)[C@H]3C2)CN1)C1CCCc2cccnc21 (some centres unmarked) [EMU235]
IC50: 18.7 nM

SMILES: CN(C[C@H]1Cc2c(cccc2N2C[C@@H]3CCN(C)[C@@H]3C2)CN1)C1CCCc2cccnc21 (some centres unmarked) [EMU236]
IC50: 11.4 nM

SMILES: CN1Cc2cccc(N3CCN4CCC[C@@H]4C3)c2C[C@@H]1CN(C)[C@H]1CCCc2cccnc21 [EMU239]
IC50: 44.6 nM

SMILES: CN1CCC(N(C)c2cccc3c2C[C@H](CN(C)[C@H]2CCCc4cccnc42)NC3)CC1 [EMU240]
IC50: 13.4 nM

SMILES: CN1Cc2cccc(N3CCN4CCC[C@H]4C3)c2C[C@@H]1CN(C)[C@H]1CCCc2cccnc21 [EMU241]
IC50: 58.1 nM
